Assay results reported in US20250163054A1, “SUBSTITUTED BICYCLIC HETEROARYL COMPOUNDS USEFUL AS INHIBITORS OF TLR9” (Bristol-Myers Squibb Company, priority 2022, published 2025).

Experiments:
Assay type in all cases: cell-based
[1] = target: T1, human TLR7 (Homo sapiens, UniProt Q9NYK1); assay: TLR7/8/9 Inhibition Reporter Assays (TLR7); settings: HEK-Blue cells overexpressing human TLR7, SEAP reporter, stimulated with TLR7 ligand gardiquimod
T1 construct: host or cells: HEK-Blue cells (HEK293-derived reporter line)
T1 sequence (Q9NYK1 27-1049): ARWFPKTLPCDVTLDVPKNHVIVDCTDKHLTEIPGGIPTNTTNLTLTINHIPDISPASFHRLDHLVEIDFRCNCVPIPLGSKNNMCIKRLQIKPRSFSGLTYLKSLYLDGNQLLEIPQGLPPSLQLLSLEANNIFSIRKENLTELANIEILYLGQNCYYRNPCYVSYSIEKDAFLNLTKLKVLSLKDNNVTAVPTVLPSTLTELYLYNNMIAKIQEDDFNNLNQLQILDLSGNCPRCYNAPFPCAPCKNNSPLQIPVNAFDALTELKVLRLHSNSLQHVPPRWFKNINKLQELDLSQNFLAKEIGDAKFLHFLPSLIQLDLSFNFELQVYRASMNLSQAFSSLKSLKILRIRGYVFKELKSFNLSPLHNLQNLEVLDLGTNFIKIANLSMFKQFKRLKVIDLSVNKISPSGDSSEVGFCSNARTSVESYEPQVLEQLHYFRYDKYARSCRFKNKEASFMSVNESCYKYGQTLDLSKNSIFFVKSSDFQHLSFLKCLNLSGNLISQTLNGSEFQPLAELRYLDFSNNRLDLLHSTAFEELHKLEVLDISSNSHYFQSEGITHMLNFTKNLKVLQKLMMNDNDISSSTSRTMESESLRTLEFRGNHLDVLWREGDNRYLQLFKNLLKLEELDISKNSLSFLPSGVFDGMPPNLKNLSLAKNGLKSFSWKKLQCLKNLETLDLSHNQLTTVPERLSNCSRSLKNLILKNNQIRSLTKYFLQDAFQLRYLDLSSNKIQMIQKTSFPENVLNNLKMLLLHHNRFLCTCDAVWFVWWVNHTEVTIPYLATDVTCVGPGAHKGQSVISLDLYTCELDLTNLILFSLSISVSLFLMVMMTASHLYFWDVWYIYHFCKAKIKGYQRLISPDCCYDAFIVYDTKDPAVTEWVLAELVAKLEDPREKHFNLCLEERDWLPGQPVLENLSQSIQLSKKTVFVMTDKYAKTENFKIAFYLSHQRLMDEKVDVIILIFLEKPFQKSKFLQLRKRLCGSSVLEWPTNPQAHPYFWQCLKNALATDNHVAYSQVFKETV
Description: (§1) HEK-Blue™-cells (Invivogen) overexpressing human TLR7, TLR8 or TLR9 receptors were used for screening inhibitors of these receptors using an inducible SEAP (secreted embryonic alkaline phosphatase) reporter gene under the control of the IFN-β minimal promoter fused to five NF-κB and AP-1-binding sites. Cells are seeded into Greiner 384 well plates (15000 cells per well) that are predispensed (by ECHO) with testing compounds in DMSO to yield a final dose response concentration range of 0.85 nM-[…]. After a 60 minute compound pre-treatment in 37° C. incubator, the cells are then stimulated with a TLR7 ligand (gardiquimod at a final concentration of […]), TLR8 ligand (R848 at a final concentration of […]) or TLR9 ligand (ODN2006 at a final concentration of 200 nM) to activate NF-κB and AP-1 which induce the production of SEAP. After a 22 hour incubation at 37° C., 5% CO2, SEAP levels are determined with the addition of HEK-Blue™ Detection reagent (Invivogen), a cell culture medium that allows for detection of SEAP, according to manufacturer's specifications. The percent inhibition is determined as the % reduction in the HEK-Blue signal present in wells treated with agonist plus DMSO alone compared to wells treated with a known inhibitor.

[2] = target: T2, human TLR8 (Homo sapiens, UniProt Q9NR97); assay: TLR7/8/9 Inhibition Reporter Assays (TLR8); settings: HEK-Blue cells overexpressing human TLR8, SEAP reporter, stimulated with TLR8 ligand R848
T2 construct: host or cells: HEK-Blue cells (HEK293-derived reporter line)
T2 sequence (Q9NR97 27-1041): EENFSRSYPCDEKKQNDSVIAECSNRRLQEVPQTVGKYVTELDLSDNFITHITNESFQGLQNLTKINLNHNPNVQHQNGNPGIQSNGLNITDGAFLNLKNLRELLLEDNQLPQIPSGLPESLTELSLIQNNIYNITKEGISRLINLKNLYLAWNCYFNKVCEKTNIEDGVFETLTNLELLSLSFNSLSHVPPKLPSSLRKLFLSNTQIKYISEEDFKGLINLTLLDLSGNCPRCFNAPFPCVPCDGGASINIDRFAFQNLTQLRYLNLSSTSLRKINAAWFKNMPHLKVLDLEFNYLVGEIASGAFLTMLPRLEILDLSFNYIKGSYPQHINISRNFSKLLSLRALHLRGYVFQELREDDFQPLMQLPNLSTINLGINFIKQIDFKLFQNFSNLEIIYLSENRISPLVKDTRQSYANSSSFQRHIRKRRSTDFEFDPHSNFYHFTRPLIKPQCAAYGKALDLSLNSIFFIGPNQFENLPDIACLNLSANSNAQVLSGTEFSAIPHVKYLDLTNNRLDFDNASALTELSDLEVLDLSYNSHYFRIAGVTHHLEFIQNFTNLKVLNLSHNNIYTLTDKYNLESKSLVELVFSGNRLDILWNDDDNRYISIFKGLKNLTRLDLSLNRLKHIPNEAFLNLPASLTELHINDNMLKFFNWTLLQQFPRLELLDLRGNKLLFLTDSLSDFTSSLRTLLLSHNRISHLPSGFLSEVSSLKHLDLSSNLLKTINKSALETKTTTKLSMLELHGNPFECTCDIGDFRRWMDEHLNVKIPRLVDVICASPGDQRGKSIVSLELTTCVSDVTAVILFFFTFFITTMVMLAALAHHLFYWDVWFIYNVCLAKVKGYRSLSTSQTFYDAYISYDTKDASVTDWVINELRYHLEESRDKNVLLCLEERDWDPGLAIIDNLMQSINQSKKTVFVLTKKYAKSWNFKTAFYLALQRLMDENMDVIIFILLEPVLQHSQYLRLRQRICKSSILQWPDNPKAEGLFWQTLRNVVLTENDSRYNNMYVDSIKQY
Description: as §1

[3] = target: T3, human TLR9 (Homo sapiens, UniProt Q9NR96); assay: TLR7/8/9 Inhibition Reporter Assays (TLR9); settings: HEK-Blue cells overexpressing human TLR9, SEAP reporter, stimulated with TLR9 ligand ODN2006
T3 construct: host or cells: HEK-Blue cells (HEK293-derived reporter line)
T3 sequence (Q9NR96 26-1032): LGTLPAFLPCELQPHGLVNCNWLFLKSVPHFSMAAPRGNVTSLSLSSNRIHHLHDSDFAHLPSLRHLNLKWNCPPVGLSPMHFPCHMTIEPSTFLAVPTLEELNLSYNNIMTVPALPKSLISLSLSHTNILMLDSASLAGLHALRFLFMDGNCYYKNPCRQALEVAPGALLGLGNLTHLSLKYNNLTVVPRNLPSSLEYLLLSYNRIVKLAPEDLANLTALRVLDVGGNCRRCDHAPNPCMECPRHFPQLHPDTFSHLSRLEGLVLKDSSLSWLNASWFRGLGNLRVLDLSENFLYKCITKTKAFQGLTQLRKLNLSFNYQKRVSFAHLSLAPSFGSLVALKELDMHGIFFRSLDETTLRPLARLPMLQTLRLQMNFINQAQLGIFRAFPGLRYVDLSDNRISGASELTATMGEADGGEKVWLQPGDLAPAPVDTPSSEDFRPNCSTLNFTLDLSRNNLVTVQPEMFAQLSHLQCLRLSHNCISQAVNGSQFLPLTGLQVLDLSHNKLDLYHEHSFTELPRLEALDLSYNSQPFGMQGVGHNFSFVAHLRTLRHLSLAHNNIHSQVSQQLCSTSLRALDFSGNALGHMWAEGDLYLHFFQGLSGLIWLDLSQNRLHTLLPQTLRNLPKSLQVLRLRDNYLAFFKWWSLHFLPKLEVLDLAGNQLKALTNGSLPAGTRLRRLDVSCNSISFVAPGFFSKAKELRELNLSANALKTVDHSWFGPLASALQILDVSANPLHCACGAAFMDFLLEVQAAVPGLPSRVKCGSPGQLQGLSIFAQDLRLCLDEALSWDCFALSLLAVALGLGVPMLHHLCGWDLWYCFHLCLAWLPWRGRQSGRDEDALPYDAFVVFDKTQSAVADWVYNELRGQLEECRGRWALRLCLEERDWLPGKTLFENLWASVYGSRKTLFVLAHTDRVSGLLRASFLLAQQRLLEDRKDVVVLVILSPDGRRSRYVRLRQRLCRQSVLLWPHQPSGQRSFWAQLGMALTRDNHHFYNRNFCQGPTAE
Description: as §1

With `Cc1nc(-c2ccc(C3CCN(C)CC3)cc2)cc2c1nc(-c1ccc(S(C)(=O)=O)cc1)n2C` [Example 26, 1,4-dimethyl-6-(4-(1-methylpiperidin-4-yl)phenyl)-2-(4-(methylsulfonyl)phenyl)-1H-imidazo[4,5-c]pyridine] as the compound, how does the IC50 [1] read?
The IC50 was 6.1 µM.

What about the IC50 [2] of the same compound?
Its IC50 is 41 µM.

What about the IC50 [3] of the same compound?
Its IC50 is 230 nM.

With `Cc1nc(-c2ccc(C3CCNCC3)cc2)cc2c1nc(-c1ccc(S(C)(=O)=O)cc1)n2C` [Example 27, 1,4-dimethyl-2-(4-(methylsulfonyl)phenyl)-6-(4-(piperidin-4-yl)phenyl)-1H-imidazo[4,5-c]pyridine] as the compound, how does the IC50 [1] read?
Its IC50 is 20 µM.

What about the IC50 [2] of the same compound?
The IC50 was 46 µM.

And the IC50 [3]?
Its IC50 is 1100 nM.

With `Cc1nc(-c2ccc(C3CCN(C4CCOCC4)CC3)cc2)cc2c1nc(-c1ccc(S(C)(=O)=O)cc1)n2C` [Example 28, 1,4-dimethyl-2-(4-(methylsulfonyl)phenyl)-6-(4-(1-(tetrahydro-2H-pyran-4-yl)piperidin-4-yl)phenyl)-1H-imidazo[4,5-c]pyridine] as the compound, how does the IC50 [1] read?
The IC50 was 11 µM.

And the IC50 [2]?
The IC50 was > 25 µM.

And the IC50 [3]?
Its IC50 is 310 nM.

How did the IC50 [1] turn out when `Cc1nc(-c2ccc(C3CCN(CC4COC4)CC3)cc2)cc2c1nc(-c1ccc(S(C)(=O)=O)cc1)n2C` [Example 29, 1,4-dimethyl-2-(4-(methylsulfonyl)phenyl)-6-(4-(1-(oxetan-3-ylmethyl)piperidin-4-yl)phenyl)-1H-imidazo[4,5-c]pyridine] was run?
The IC50 was 13 µM.

And the IC50 [2]?
Its IC50 is > 50 µM.

What about the IC50 [3] of the same compound?
The IC50 was 1100 nM.

Which results are given for `CC(C)N1CCC(N2CCC(c3cc4c(cn3)nc(-c3ccc(S(C)(=O)=O)cc3)n4C)CC2)CC1` [Example 30, 6-(1′-isopropyl-[1,4′-bipiperidin]-4-yl)-1-methyl-2-(4-(methylsulfonyl)phenyl)-1H-imidazo[4,5-c]pyridine]?
IC50 [1]: > 25 µM; IC50 [2]: > 25 µM; IC50 [3]: 1400 nM

How did the IC50 [1] turn out when `CC(C)CN1CCC(N2CCC(c3cc4c(cn3)nc(-c3ccc(S(C)(=O)=O)cc3)n4C)CC2)CC1` [Example 31, 6-(1′-isobutyl-[1,4′-bipiperidin]-4-yl)-1-methyl-2-(4-(methylsulfonyl)phenyl)-1H-imidazo[4,5-c]pyridine] was run?
The IC50 was 4.8 µM.

What about the IC50 [2] of the same compound?
Its IC50 is > 25 µM.

And the IC50 [3]?
The IC50 was 240 nM.

With `CC(C)CN1CCC(N2CCC(c3cc4c(nc(-c5ccc(S(C)(=O)=O)cc5)n4C)c(C(F)(F)F)n3)CC2)CC1` [Example 33, 6-(1′-isobutyl-[1,4′-bipiperidin]-4-yl)-1-methyl-2-(4-(methylsulfonyl)phenyl)-4-(trifluoromethyl)-1H-imidazo[4,5-c]pyridine] as the compound, how does the IC50 [1] read?
The IC50 was 1.4 µM.

And the IC50 [2]?
The IC50 was > 50 µM.

What about the IC50 [3] of the same compound?
The IC50 was 590 nM.

What does the source list for `Cn1c(-c2ccc(S(C)(=O)=O)cc2)nc2c(C(F)(F)F)nc(C3CCN(C4CCN(CC(C)(C)O)CC4)CC3)cc21` [Example 34, 2-methyl-1-(4-(1-methyl-2-(4-(methylsulfonyl)phenyl)-4-(trifluoromethyl)-1H-imidazo[4,5-c]pyridin-6-yl)-[1,4′-bipiperidin]-1′-yl)propan-2-ol]?
IC50 [1]: 3.5 µM; IC50 [2]: > 50 µM; IC50 [3]: 130 nM

`CC(C)N1CCC(N2CC=C(c3cc4c(nc(-c5ccc(S(C)(=O)=O)cc5)n4C)c(C(F)(F)F)n3)CC2)CC1` [Example 35, 6-(1-(1-isopropylpiperidin-4-yl)-1,2,3,6-tetrahydropyridin-4-yl)-1-methyl-2-(4-(methylsulfonyl)phenyl)-4-(trifluoromethyl)-1H-imidazo[4,5-c]pyridine] was tested. Which IC50 [1] did it give?
Its IC50 is 3.3 µM.

What about the IC50 [2] of the same compound?
The IC50 was > 50 µM.

What about the IC50 [3] of the same compound?
The IC50 was 160 nM.

Which IC50 [1] does the source give for `CC(C)CN1CCC(N2CC=C(c3cc4c(nc(-c5ccc(S(C)(=O)=O)cc5)n4C)c(C(F)(F)F)n3)CC2)CC1` [Example 36, 6-(1-(1-isobutylpiperidin-4-yl)-1,2,3,6-tetrahydropyridin-4-yl)-1-methyl-2-(4-(methylsulfonyl)phenyl)-4-(trifluoromethyl)-1H-imidazo[4,5-c]pyridine] here?
The IC50 was 4.1 µM.

And the IC50 [2]?
The IC50 was > 50 µM.

What about the IC50 [3] of the same compound?
The IC50 was 330 nM.
